How the values were obtained:
[1] = UNIVERSE primary efficacy outcome: any thrombotic event (CIAC adjudicated); assay type: in vivo, pediatric patients; details: Part B rivaroxaban N=64, aspirin N=34, up to end of treatment, full analysis set
Description: This study was a prospective, open-label, active-controlled, multicenter study designed to evaluate the PK and PK/PD profiles, safety, and efficacy of rivaroxaban for thromboprophylaxis in pediatric patients 2 to 8 years of age with single ventricle physiology who have completed the Fontan procedure within 4 months prior to enrollment. The trial was approved by the institutional review board of each participating institution, as well as the appropriate national ethics committee. Written informed consent for trial participation was obtained from the parent or guardian of each patient. An Independent Data Monitoring Committee (IDMC) ensured patients' safety throughout the trial. A Central Independent Adjudication Committee (CIAC) reviewed all efficacy and safety events.
Part B was the randomized, open-label, active-controlled part of the study that evaluated the safety and efficacy of twice daily administration of rivaroxaban compared to ASA (usual standard of care) for thromboprophylaxis for 12 months. Patients randomized to rivaroxaban also had PK and PD assessments.
Primary efficacy outcome: Any thrombotic event, venous or arterial, symptomatic or asymptomatic defined as: • The appearance of a new thrombus within the cardiovascular system on either routine surveillance or clinically indicated imaging, or • The occurrence of a clinical event known to be strongly associated with thrombus (e.g., stroke, pulmonary embolism).
All efficacy outcomes were adjudicated by the CIAC, blinded to assigned treatment.

[2] = human, in vivo
Description: The methods and products of the invention concern dosages that are clinically proven safe and/or effective. Adverse events that impact whether the inventive dose, dosing regimen, treatment or method with rivaroxaban of the present invention are safe are adverse bleeding events that include, for example, major bleeding. “Major bleeding” as used herein is defined in accordance with ISTH criteria as clinically overt bleeding associated with a decrease in hemoglobin of […], a transfusion of the equivalent of […] of packed red blood cells or whole blood, or bleeding at a critical site, or with fatal outcome. Other adverse events include clinically relevant non-major bleeding and trivial (minimal) bleeding.
The primary safety outcome was ISTH defined major bleeding. Major bleeding was defined as overt bleeding and: […]
1) Associated with a fall in hemoglobin of 2 g/dL or more; or 2) Leading to a transfusion of the equivalent of 2 or more units of packed red blood cells or whole blood in adults; or 3) Occurring in a critical site: intracranial, intraspinal, intraocular, pericardial, intraarticular, intramuscular with compartment syndrome, retroperitoneal; or 4) Contributing to death.
The secondary safety outcomes were: Clinically relevant non-major bleeding and trivial (minimal) bleeding events.

[3] = UNIVERSE adverse events, serious adverse events and treatment discontinuation; assay type: in vivo, pediatric patients; details: Part B rivaroxaban N=64, aspirin N=34
Description: Other safety outcomes: Any adverse events and serious adverse events (SAES).

[4] = treatment-emergent, safety set, listed as ASA
[5] = up to end of treatment, full analysis set

SMILES: CC(=O)Oc1ccccc1C(=O)O [Aspirin, acetylsalicylic acid]
- All-cause mortality, No. of subjects with event [1]: 0
- Any thrombotic event (primary efficacy outcome), % of subjects [1]: (8.8%)
- Arterial/intracardiac thrombosis, subjects n (%) [1]: 0
- Ischemic stroke, % of subjects [1]: (2.9%)
- Other thrombosis, subjects n (%) [1]: 0
- Pulmonary embolism, subjects n (%) [1]: 0
- Venous thromboembolism, % of subjects [1]: (5.9%)
- Venous thromboembolism, No. of subjects with event [1]: 2/34
- Venous thrombosis, % of subjects [1]: (5.9%)
- Any thrombotic event (primary efficacy outcome), % of subjects ([1]; listed as ASA): 9%
- CRNM bleeding: GI-Lower, % of subjects [2]: (2.9%)
- CRNM bleeding: Gastrointestinal, % of subjects [2]: (2.9%)
- CRNM bleeding: Gastrointestinal, subjects n (%) [2]: 1
- CRNM bleeding: Gingival, subjects n (%) [2]: 0
- CRNM bleeding: Hematoma, % of subjects [2]: (2.9%)
- CRNM bleeding: Skin, % of subjects [2]: (2.9%)
- CRNM bleeding: Subconjunctival, % of subjects [2]: (2.9%)
- Clinically relevant non-major (CRNM) bleeding, % of subjects [2]: (8.8%)
- Clinically relevant non-major (CRNM) bleeding, No. of subjects with event [2]: 3/34
- Clinically relevant non-major bleeding, % of subjects [2]: (8.8%)
- Fall in hemoglobin ≥2 g/dL or transfusion of the equivalent ≥2 units of packed red blood cell or whole blood in adults, No. of subjects with event [2]: 0
- Fatal or critical site bleeding, No. of subjects with event [2]: 0
- Major and clinically relevant non-major bleeding, % of subjects [2]: (8.8%)
- Major and clinically relevant non-major bleeding, No. of subjects with event [2]: 3/34
- Major bleeding (primary safety outcome), No. of subjects with event [2]: 0
- Subjects with 1 or more on-treatment bleeding events, % of subjects [2]: (41.2%)
- Trivial (minimal) bleeding, % of subjects [2]: (35.3%)
- Trivial (minimal) bleeding, No. of subjects with event [2]: 12/34
- Trivial bleeding, % of subjects [2]: (35.3%)
- Trivial bleeding: Epistaxis, % of subjects [2]: (8.8%)
- Trivial bleeding: Epistaxis, subjects n (%) [2]: 3
- Trivial bleeding: GI-Lower, % of subjects [2]: (2.9%)
- Trivial bleeding: GI-Lower, subjects n (%) [2]: 1
- Trivial bleeding: GI-Upper, subjects n (%) [2]: 0
- Trivial bleeding: Gastrointestinal, % of subjects [2]: (2.9%)
- Trivial bleeding: Gastrointestinal, subjects n (%) [2]: 1
- Trivial bleeding: Gingival, % of subjects [2]: (2.9%)
- Trivial bleeding: Gingival, subjects n (%) [2]: 1
- Trivial bleeding: Hematoma, % of subjects [2]: (5.9%)
- Trivial bleeding: Hematoma, subjects n (%) [2]: 2
- Trivial bleeding: Skin, % of subjects [2]: (23.5%)
- Trivial bleeding: Vascular Access Site, subjects n (%) [2]: 0
- AEs related to Study Agent, % of subjects ([3]; safety set): (26.5%)
- AEs related to Study Agent, n (%) ([3]; safety set): 9
- SAEs related to Study Agent, n (%) ([3]; safety set): 0
- TEAEs resulting in Permanent Discontinuation of Study Agent, n (%) ([3]; safety set): 0
- Adverse event: Pleural Effusion, % of participants ([3]; treatment-emergent, safety set): (6%)
- All TEAEs (subjects with 1 or more), % of subjects ([3]; treatment-emergent, safety set): (85.3%)
- All TESAEs (subjects with 1 or more serious adverse events), % of subjects ([3]; treatment-emergent, safety set): (23.5%)
- Serious adverse event: Infections, % of participants ([3]; treatment-emergent, safety set): (12%)
- Serious adverse event: Infections, n (%) ([3]; treatment-emergent, safety set): 4
- Serious adverse event: Pleural Effusion, % of participants ([3]; treatment-emergent, safety set): (6%)
- Serious adverse event: Pleural Effusion, n (%) ([3]; treatment-emergent, safety set): 2
- Serious adverse event: Respiratory, Thoracic, and Mediastinal Disorders, % of participants ([3]; treatment-emergent, safety set): (9%)
- Serious adverse event: Respiratory, Thoracic, and Mediastinal Disorders, n (%) ([3]; treatment-emergent, safety set): 3
- TEAE: Gastrointestinal Disorders, % of subjects ([3]; treatment-emergent, safety set): (26.5%)
- TEAE: Gastrointestinal Disorders, n (%) ([3]; treatment-emergent, safety set): 9
- TEAE: General Disorders and Administration Site Conditions, % of subjects ([3]; treatment-emergent, safety set): (23.5%)
- TEAE: General Disorders and Administration Site Conditions, n (%) ([3]; treatment-emergent, safety set): 8
- TEAE: Infections and infestations, % of subjects ([3]; treatment-emergent, safety set): (64.7%)
- TEAE: Injury, Poisoning, and Procedural Complications, % of subjects ([3]; treatment-emergent, safety set): (29.4%)
- TEAE: Injury, Poisoning, and Procedural Complications, n (%) ([3]; treatment-emergent, safety set): 10
- TEAE: Respiratory, Thoracic, and Mediastinal Disorders, % of subjects ([3]; treatment-emergent, safety set): (26.5%)
- TEAE: Respiratory, Thoracic, and Mediastinal Disorders, n (%) ([3]; treatment-emergent, safety set): 9
- TEAE: Skin and Subcutaneous Tissue Disorders, % of subjects ([3]; treatment-emergent, safety set): (26.5%)
- TEAE: Skin and Subcutaneous Tissue Disorders, n (%) ([3]; treatment-emergent, safety set): 9
- TEAE: Vascular Disorders, % of subjects ([3]; treatment-emergent, safety set): (2.9%)
- TEAE: Vascular Disorders, n (%) ([3]; treatment-emergent, safety set): 1
- Adverse event: Pleural Effusion, n (%) [3, 4]: 2
- All TEAEs (subjects with 1 or more), % of subjects [3, 4]: (85%)
- All TEAEs (subjects with 1 or more), n (%) [3, 4]: 29
- All TESAEs (subjects with 1 or more serious adverse events), % of subjects [3, 4]: (24%)
- All TESAEs (subjects with 1 or more serious adverse events), n (%) [3, 4]: 8
- TEAE: Gastrointestinal Disorders, % of subjects [3, 4]: (26%)
- TEAE: General Disorders and Administration Site Conditions, % of subjects [3, 4]: (24%)
- TEAE: Infections and infestations, % of subjects [3, 4]: (65%)
- TEAE: Infections and infestations, n (%) [3, 4]: 22
- TEAE: Injury, Poisoning, and Procedural Complications, % of subjects [3, 4]: (29%)
- TEAE: Respiratory, Thoracic, and Mediastinal Disorders, % of subjects [3, 4]: (26%)
- TEAE: Skin and Subcutaneous Tissue Disorders, % of subjects [3, 4]: (26%)
- TEAE: Vascular Disorders, % of subjects [3, 4]: (3%)
- SAEs, % of subjects [3, 5]: (23.5%)
- SAEs, No. of subjects with event [3, 5]: 8/34

— patent US20220193085A1, “METHODS OF THROMBOPROPHYLAXIS” (JANSSEN PHARMACEUTICALS, INC., priority 2020, published 2022)
